This is an account of results in article PMC6539891, “Indole-Based Hydrazones Containing A Sulfonamide Moiety as Selective Inhibitors of Tumor-Associated Human Carbonic Anhydrase Isoforms IX and XII” (International Journal of Molecular Sciences, 2019).

The structures appear in SMILES notation. Some results are limits rather than exact numbers.

Experiment [1] concerns the target T1, hCA II (Homo sapiens, UniProt P00918).
T1 construct: gene CA2; recombinant from E. coli; cytosolic isoform
Briefly: stopped-flow CO2 hydration assay. It counts as biochemical. An excerpt: stopped-flow CO2 hydration assay on hCA II

For experiment [2], the target named is T2, hCA IX (Homo sapiens, UniProt Q16790).
T2 construct: gene CA9; recombinant from E. coli; transmembrane isoform with extracellular catalytic domain
Briefly: stopped-flow CO2 hydration assay. The following applies: read-out: KI^* (nM) / hCAIX. Type of experiment: biochemical. An excerpt:
stopped-flow CO2 hydration assay on hCA IX

For experiment [3], the target named is T3, hCA I (Homo sapiens, UniProt P00915).
T3 construct: gene CA1; recombinant from E. coli; cytosolic isoform
T3 sequence (P00915 2-261): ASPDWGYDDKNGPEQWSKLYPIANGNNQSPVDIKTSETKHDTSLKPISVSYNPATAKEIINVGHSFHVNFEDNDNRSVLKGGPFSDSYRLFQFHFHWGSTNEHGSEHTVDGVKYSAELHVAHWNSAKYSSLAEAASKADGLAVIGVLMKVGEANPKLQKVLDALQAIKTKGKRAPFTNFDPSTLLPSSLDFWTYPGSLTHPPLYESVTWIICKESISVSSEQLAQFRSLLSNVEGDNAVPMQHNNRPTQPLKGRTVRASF
Description: stopped-flow CO2 hydration assay. Type of experiment: biochemical. An excerpt:
stopped-flow CO2 hydration assay on hCA I

Experiment [4] concerns the target T4, hCA XII (Homo sapiens, UniProt O43570).
T4 construct: gene CA12; recombinant from E. coli; transmembrane isoform with extracellular catalytic domain
Briefly: stopped-flow CO2 hydration assay. It counts as biochemical. An excerpt:
stopped-flow CO2 hydration assay on hCA XII

Experiment [5] in a line: stopped-flow CO2 hydration assay. The note with it: read-out: KI^* (nM) / hCA I. It counts as biochemical, Homo sapiens.

T4 sequence (O43570 30-289 limits assumed): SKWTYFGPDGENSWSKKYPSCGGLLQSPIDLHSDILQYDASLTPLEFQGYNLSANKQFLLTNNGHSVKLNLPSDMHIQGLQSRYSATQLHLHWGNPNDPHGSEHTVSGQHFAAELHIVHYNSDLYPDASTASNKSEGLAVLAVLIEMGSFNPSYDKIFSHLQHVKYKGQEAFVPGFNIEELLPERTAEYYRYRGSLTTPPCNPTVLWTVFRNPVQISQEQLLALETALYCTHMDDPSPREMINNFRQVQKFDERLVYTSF

Take `CC(C)=NNC(=O)c1[nH]c2ccc(S(N)(=O)=O)cc2c1-c1ccccc1` [compound 12, 3-Phenyl-2-{[2-(propan-2-ylidene)hydrazinyl]carbonyl}-1H-indole-5-sulfonamide]: the Ki in experiment [1] stood at 8500 nM; in experiment [2], 47.9 nM; in experiment [3], 9560 nM; in experiment [4], 87.9 nM.

Take `NS(=O)(=O)c1ccc2[nH]c(C(=O)NN=Cc3c[nH]c4ccccc34)c(-c3ccccc3)c2c1` [compound 9, 3-Phenyl-2-{[2-(1H-indole-3-ylmethylidene)hydrazinyl]carbonyl}-1H-indole-5-sulfonamide]: the Ki in experiment [2] was 207 nM; in experiment [3] it was above 10000 nM; in experiment [4] it was 77.3 nM; in experiment [5] it was above 10000 nM.

`CC1CCC(=NNC(=O)c2[nH]c3ccc(S(N)(=O)=O)cc3c2-c2ccccc2)CC1` (stereo not drawn) [compound 18, 2-{[2-(4-Methylcyclohexylidene)hydrazinyl]carbonyl}-3-phenyl-1H-indole-5-sulfonamide]: the Ki in experiment [1] is 8940 nM; in experiment [2], 419 nM; in experiment [3], above 10000 nM; in experiment [4], 139 nM.

Regarding `NS(=O)(=O)c1ccc2[nH]c(C(=O)NN=C3CCCC3)c(-c3ccccc3)c2c1` [compound 16, 2-[(2-Cyclopentylidenehydrazinyl)carbonyl]-3-phenyl-1H-indole-5-sulfonamide], the Ki in experiment [1] is 5960 nM; in experiment [2], 476 nM; in experiment [3], above 10000 nM; in experiment [4] it was 97.2 nM.

In the case of `CN1CCC(=NNC(=O)c2[nH]c3ccc(S(N)(=O)=O)cc3c2-c2ccccc2)CC1` [compound 23, 2-{[2-(1-Methylpiperidine-4-ylidene)hydrazinyl]carbonyl}-3-phenyl-1H-indole-5-sulfonamide], the Ki in experiment [1] is 309 nM; in experiment [2], 9.2 nM; in experiment [3], above 10000 nM; in experiment [4], 62.9 nM.

As to `CCC1CCC(=NNC(=O)c2[nH]c3ccc(S(N)(=O)=O)cc3c2-c2ccccc2)CC1` (stereo not drawn) [compound 19, 2-{[2-(4-Ethylcyclohexylidene)hydrazinyl]carbonyl}-3-phenyl-1H-indole-5-sulfonamide], the Ki in experiment [1] is 1280 nM; in experiment [2] it was 475 nM; in experiment [3], above 10000 nM; in experiment [4], 220 nM.

Turning to `NS(=O)(=O)c1ccc2[nH]c(C(=O)NN=Cc3cccnc3)c(-c3ccccc3)c2c1` [compound 7, 3-Phenyl-2-{[2-(pyridine-3-ylmethylidene)hydrazinyl]carbonyl}-1H-indole-5-sulfonamide], the Ki in experiment [1] was 8910 nM; in experiment [2], 35.8 nM; in experiment [3] it was 8590 nM; in experiment [4], 1.4 nM.

For `CC(CC(C)C)=NNC(=O)c1[nH]c2ccc(S(N)(=O)=O)cc2c1-c1ccccc1` [compound 15, 2-{[2-(4-Methylpentan-2-ylidene)hydrazinyl]carbonyl}-3-phenyl-1H-indole-5-sulfonamide], the Ki in experiment [1] stood at 6560 nM; in experiment [2], 188 nM; in experiment [3] it was 8650 nM; in experiment [4] it was 27.9 nM.

As for `CCC(C)=NNC(=O)c1[nH]c2ccc(S(N)(=O)=O)cc2c1-c1ccccc1` [compound 13, 2-{[2-(Butan-2-ylidene)hydrazinyl]carbonyl}-3-phenyl-1H-indole-5-sulfonamide], the Ki in experiment [1] was determined as 8030 nM; in experiment [2], 42.1 nM; in experiment [3], 9620 nM; in experiment [4], 92.4 nM.

In the case of `NS(=O)(=O)c1ccc2[nH]c(C(=O)NN=Cc3ccc(Br)s3)c(-c3ccccc3)c2c1` [compound 5, 2-({2-[(5-Bromothiophene-2-yl)methylidene]hydrazinyl}carbonyl)-3-phenyl-1H-indole-5-sulfonamide], the Ki was above 10000 nM in experiment [1], 48.4 nM in experiment [2], 9410 nM in experiment [3] and 75.1 nM in experiment [4].

Consider `NS(=O)(=O)c1ccc2[nH]c(C(=O)NN=C3CCN(Cc4ccccc4)CC3)c(-c3ccccc3)c2c1` [compound 24, 2-{[2-(1-Benzylpiperidine-4-ylidene)hydrazinyl]carbonyl}-3-phenyl-1H-indole-5-sulfonamide], for which the Ki in experiment [1] came to 372 nM; in experiment [2], 11.7 nM; in experiment [3], 7380 nM; in experiment [4] it was 9.4 nM.

Regarding `C=NNC(=O)c1[nH]c2ccc(S(N)(=O)=O)cc2c1-c1ccccc1` [compound 10, 2-[(2-Methylidenehydrazinyl)carbonyl]-3-phenyl-1H-indole-5-sulfonamide], the Ki was determined as 9370 nM in experiment [1], 32.9 nM in experiment [2], 7480 nM in experiment [3] and 23.8 nM in experiment [4].

For the compound `CCCC1CCC(=NNC(=O)c2[nH]c3ccc(S(N)(=O)=O)cc3c2-c2ccccc2)CC1` (stereo not drawn) [compound 20, 2-{[2-(4-Propylcyclohexylidene)hydrazinyl]carbonyl}-3-phenyl-1H-indole-5-sulfonamide], the Ki was 796 nM in experiment [1], 348 nM in experiment [2], above 10000 nM in experiment [3] and 154 nM in experiment [4].

Consider `NS(=O)(=O)c1ccc2[nH]c(C(=O)NN=Cc3cccs3)c(-c3ccccc3)c2c1` [compound 4, 3-Phenyl-2-{[2-(thiophene-2-ylmethylidene)hydrazinyl]carbonyl}-1H-indole-5-sulfonamide], for which the Ki in experiment [1] was above 10000 nM; in experiment [2] it was 47.4 nM; in experiment [3], 6670 nM; in experiment [4], 4.5 nM.

In the case of `NS(=O)(=O)c1ccc2[nH]c(C(=O)NN=C3CCCCC3)c(-c3ccccc3)c2c1` [compound 17, 2-[(2-Cyclohexylidenehydrazinyl)carbonyl]-3-phenyl-1H-indole-5-sulfonamide], the Ki in experiment [1] was 5870 nM; in experiment [2], 191 nM; in experiment [3], above 10000 nM; in experiment [4], 86.2 nM.

For `NS(=O)(=O)c1ccc2[nH]c(C(=O)NN=C3CCC(c4ccccc4)CC3)c(-c3ccccc3)c2c1` (stereo not drawn) [compound 21, 2-{[2-(4-Phenylcyclohexylidene)hydrazinyl]carbonyl}-3-phenyl-1H-indole-5-sulfonamide], the Ki in experiment [1] was 831 nM; in experiment [2], 32.3 nM; in experiment [3], above 10000 nM; in experiment [4] it was 14.8 nM.

`CCC(CC)=NNC(=O)c1[nH]c2ccc(S(N)(=O)=O)cc2c1-c1ccccc1` [compound 14, 2-{[2-(Pentan-3-ylidene)hydrazinyl]carbonyl}-3-phenyl-1H-indole-5-sulfonamide]: the Ki came out at 6620 nM in experiment [1], 43.7 nM in experiment [2], 9250 nM in experiment [3] and 9.4 nM in experiment [4].

On to `CC=NNC(=O)c1[nH]c2ccc(S(N)(=O)=O)cc2c1-c1ccccc1` [compound 11, 2-[(2-Ethylidenehydrazinyl)carbonyl]-3-phenyl-1H-indole-5-sulfonamide], for which the Ki stood at 5870 nM in experiment [1], 12.9 nM in experiment [2], 4060 nM in experiment [3] and 62.6 nM in experiment [4].

Take `NS(=O)(=O)c1ccc2[nH]c(C(=O)NN=Cc3ccncc3)c(-c3ccccc3)c2c1` [compound 8, 3-Phenyl-2-{[2-(pyridine-4-ylmethylidene)hydrazinyl]carbonyl}-1H-indole-5-sulfonamide]: the Ki is 3490 nM in experiment [1], 15.8 nM in experiment [2], 3130 nM in experiment [3] and 6.6 nM in experiment [4].

With `CC(C)(C)C1CCC(=NNC(=O)c2[nH]c3ccc(S(N)(=O)=O)cc3c2-c2ccccc2)CC1` (stereo not drawn) [compound 22, 2-{[2-(4-tert-buthylcyclohexylidene)hydrazinyl]carbonyl}-3-phenyl-1H-indole-5-sulfonamide], the Ki in experiment [1] was 3380 nM; in experiment [2], 17.4 nM; in experiment [3], above 10000 nM; in experiment [4], 26.6 nM.

Regarding `Cn1cccc1C=NNC(=O)c1[nH]c2ccc(S(N)(=O)=O)cc2c1-c1ccccc1` [compound 6, 2-({2-[(1-Methyl-1H-pyrrol-2-yl)methylidene]hydrazinyl}carbonyl)-3-phenyl-1H-indole-5-sulfonamide], the Ki in experiment [1] is above 10000 nM; in experiment [2], 44.3 nM; in experiment [3] it was 9570 nM; in experiment [4], 64.4 nM.
